These are literature values, as cited in patent US11021437B2, “Pharmaceutical formulation for sublingual or buccal delivery of epinephrine or a pro-drug thereof” (Iono Pharma, LLC, priority 2016, dated 2021).

Where only a bound is given, the exact number is not on record here.

The conditions of series [1]: 0.01 mg/kg subcutaneously in the deltoid region.
For series [2] the following is noted: in vivo.

As to `CNC[C@H](O)c1ccc(O)c(O)c1` [Epinephrine], in series [1], the “time to maximum plasma epinephrine concentration” value is no more than 34 ± 14 min.

As to `CNCC(O)c1ccc(OC(=O)C(C)(C)C)c(OC(=O)C(C)(C)C)c1` (stereo not shown) [Structure 7D, 4-(1-hydroxy-2-(methylamino)ethyl)-1,2-phenylene bis(2,2-dimethylpropanoate)], the “t1/2 hydrolysis in vitro” value was 700 days and the “t1/2 oxidation in vitro” value is given as 300 days. For the same compound, the “delay before onset of seizure” value in series [2] was 8 to 10 min.
